Experimental data from US20140205670A1, “STABLE SOLID PREPARATIONS” (TAKEDA PHARMACEUTICAL COMPANY LIMITED, priority 2002, published 2014).

Assay: Stability Test of Amorphous Lansoprazole R-Isomer (compatibility with basic substances, appearance change)
Assay type: physicochemical
Conditions: blending ratio A/base 1/1 (1/0 for No Addition)
Description: (1) 100 mg of amorphous lansoprazole R-isomer was weighed precisely under low humidity environment, and put in a transparent glass bottle. Subsequently, 100 mg of basic substance as a stabilizer of basic inorganic salt shown below was weighed precisely under low humidity environment, and placed in the bottle containing amorphous lansoprazole R-isomer. Then, the bottle was capped, and shaken slightly with hand to mix.
[1] magnesium carbonate MgCO3 [2] calcium carbonate CaCO3 [3] magnesium oxide MgO [4] magnesium hydroxide Mg (OH)2 [5] no basic substance (2) The prepared samples were stored under the condition of 40° C./75% RH (open) for 5 days. Color tones were named and color codes were numbered based on International Color Manual so as to estimate the appearance change of samples everyday. At the end of experiment, the stability was judged by comparing the color tone with that of the sample stored at 5° C. as initial sample. In addition, A represents amorphous lansoprazole R-isomer in Table 2.

color tone, Storage conditions initial (5° C. 5 days) (100 mg amorphous lansoprazole R-isomer (A) + 100 mg basic substance, stored at 5° C. as initial sample): pale greenish
appearance change after 40° C./75% RH 5 days compared with initial sample (5° C.) (40° C./75% RH (open), 5 days): (changed)
color tone, Storage conditions 40° C./75% RH 5 days (40° C./75% RH (open), 5 days): pale yellow
Compound: Cc1c(OCC(F)(F)F)ccnc1C[S@@+]([O-])c1nc2ccccc2[nH]1 [No Addition]
